Assay results: patent US7166299B2, “Preparation of aqueous clear solution dosage forms with bile acids” (priority 1998, dated 2007)
“And” between values parts separate entries of the source, which are not always exact repeats. Equal values may be shown once.

Experiment: Solution stability test (HPLC) of UDCA, branched chained amino acids and maltodextrin solution, Example IV
Type: physicochemical
Description: The stability tests were conducted on three different aqueous solution systems: […]. A bile acid and a high molecular weight aqueous soluble starch conversion product were combined in aqueous solution according to Example I, with results as shown in Tables 1A and 1B. • 2. Mixed bile acids and high molecular weight aqueous soluble starch conversion products were combined in aqueous solution according to Example II, with results as shown in Table 2. • 3. Bile acids, high molecular weight aqueous soluble starch conversion products and branched chained amino acids (e.g. leucine, isoleucine, valine, or other amino acid with a branched side chain) were combined in aqueous solution according to Example IV, with results as shown in Tables 3A through 3F. The stability tests were performed with HPLC and microscope light at various pH conditions under the normal and accelerated conditions. Accelerated conditions for testing pharmaceutical compositions have been described (Remington, The Science and Practice of Pharmacy, 19th ed., p. 640). […] Thus, the formulations of the examples are suitable for preparing a commercial liquid dosage form. […] Some formulations remain stable for over 2 years. Moreover, the solution stability tests were conducted on the aqueous solution dosage forms comprising the mixture of aqueous soluble UDCA, branched chained amino acid (leucine, isoleucine, valine) and maltodextrin according to example IV as a typical example of the solution dosage forms in which bile acid as a therapeutically active agent, as an adjuvant or carrier, pharmaceutically active agent, or enhancer of solubility, and high molecular weight aqueous soluble starch conversion products or soluble non-starch polysaccharides are dissolved. According to the test results, there is no discoloration, no clarity changes, and no precipitation. […] In the tables, the concentration of the indicated bile acid salt for each of the three numbered trials and the average thereof is reported on each line. The percentage indicates the relative concentration of the bile acid salt after incubation for a certain amount of time in comparison with the initial concentration. 85 mL of the aqueous solution in which soluble UDCA is dissolved was prepared, and then maltodextrin was added into the clear solution. Into the resulting clear solution, branched amino acids were added with adjusting the pH (4–7) with agitation and then sweetener, preservatives, and flavoring agent were added. Purified water was added to adjust the total volume to be 100 mL. Tables 3A to 3F show stability test results over time of formulation prepared with amino acids according to Example IV. All stability tests were conducted at 50° C. Stability test results at pH 1 (Table 3A), pH 3 (Table 3B), pH 5 (Table 3C), pH 7 (Table 3D), pH 9 (Table 3E), and pH 10 (Table 3F) are shown.

Percentage of day 0 concentration (Table 3A: pH1, 50° C., day 0): 100.0% | concentration by HPLC, Average (Table 3A: pH1, 50° C., day 0): 0.471 | concentration by HPLC, trials #1-#3 (Table 3A: pH1, 50° C., day 0): 0.506 and 0.448 and 0.460 | Percentage of day 0 concentration (Table 3A: pH1, 50° C., day 1): 96.7% | concentration by HPLC, Average (Table 3A: pH1, 50° C., day 1): 0.456 | concentration by HPLC, trials #1-#3 (Table 3A: pH1, 50° C., day 1): 0.438 and 0.458 and 0.471 | Percentage of day 0 concentration (Table 3A: pH1, 50° C., day 2): 104.5% | concentration by HPLC, Average (Table 3A: pH1, 50° C., day 2): 0.492 | concentration by HPLC, trials #1-#3 (Table 3A: pH1, 50° C., day 2): 0.479 and 0.485 and 0.513 | Percentage of day 0 concentration (Table 3A: pH1, 50° C., day 6): 112.4% | concentration by HPLC, Average (Table 3A: pH1, 50° C., day 6): 0.530 | concentration by HPLC, trials #1-#3 (Table 3A: pH1, 50° C., day 6): 0.505 and 0.536 and 0.549 | Percentage of day 0 concentration (Table 3A: pH1, 50° C., day 7): 102.9% | concentration by HPLC, Average (Table 3A: pH1, 50° C., day 7): 0.485 | concentration by HPLC, trials #1-#3 (Table 3A: pH1, 50° C., day 7): 0.494 and 0.465 and 0.496 | Percentage of day 0 concentration (Table 3A: pH1, 50° C., day 8): 101.7% | concentration by HPLC, Average (Table 3A: pH1, 50° C., day 8): 0.479 | concentration by HPLC, trials #1-#3 (Table 3A: pH1, 50° C., day 8): 0.488 and 0.491 and 0.459 | Percentage of day 0 concentration (Table 3A: pH1, 50° C., day 9): 103.6% | concentration by HPLC, Average (Table 3A: pH1, 50° C., day 9): 0.488 | concentration by HPLC, trials #1-#3 (Table 3A: pH1, 50° C., day 9): 0.479 and 0.496 and 0.490 | Percentage of day 0 concentration (Table 3B: pH 3, 50° C., day 0): 100.0% | concentration by HPLC, Average (Table 3B: pH 3, 50° C., day 0): 0.491 | concentration by HPLC, trials #1-#3 (Table 3B: pH 3, 50° C., day 0): 0.485 and 0.491 and 0.498 | Percentage of day 0 concentration (Table 3B: pH 3, 50° C., day 1): 94.6% | concentration by HPLC, Average (Table 3B: pH 3, 50° C., day 1): 0.465 | concentration by HPLC, trials #1-#3 (Table 3B: pH 3, 50° C., day 1): 0.467 and 0.481 and 0.446 | Percentage of day 0 concentration (Table 3B: pH 3, 50° C., day 2): 103.8% | concentration by HPLC, Average (Table 3B: pH 3, 50° C., day 2): 0.510 | concentration by HPLC, trials #1-#3 (Table 3B: pH 3, 50° C., day 2): 0.510 and 0.493 and 0.527 | Percentage of day 0 concentration (Table 3B: pH 3, 50° C., day 6): 106.6% | concentration by HPLC, Average (Table 3B: pH 3, 50° C., day 6): 0.524 | concentration by HPLC, trials #1-#3 (Table 3B: pH 3, 50° C., day 6): 0.527 and 0.491 and 0.553 | Percentage of day 0 concentration (Table 3B: pH 3, 50° C., day 7): 97.3% | concentration by HPLC, Average (Table 3B: pH 3, 50° C., day 7): 0.478 | concentration by HPLC, trials #1-#3 (Table 3B: pH 3, 50° C., day 7): 0.485 and 0.481 and 0.468 | Percentage of day 0 concentration (Table 3B: pH 3, 50° C., day 8): 103.5% | concentration by HPLC, Average (Table 3B: pH 3, 50° C., day 8): 0.508 | concentration by HPLC, trials #1-#3 (Table 3B: pH 3, 50° C., day 8): 0.490 and 0.491 and 0.544 | Percentage of day 0 concentration (Table 3B: pH 3, 50° C., day 13): 104.1% | concentration by HPLC, Average (Table 3B: pH 3, 50° C., day 13): 0.511 | concentration by HPLC, trials #1-#3 (Table 3B: pH 3, 50° C., day 13): 0.519 and 0.498 and 0.517 | Percentage of day 0 concentration (Table 3C: pH 5, 50° C., day 0): 100.0% | concentration by HPLC, Average (Table 3C: pH 5, 50° C., day 0): 0.487 | concentration by HPLC, trials #1-#3 (Table 3C: pH 5, 50° C., day 0): 0.483 and 0.498 and 0.481 | Percentage of day 0 concentration (Table 3C: pH 5, 50° C., day 3): 103.4% | concentration by HPLC, Average (Table 3C: pH 5, 50° C., day 3): 0.504 | concentration by HPLC, trials #1-#3 (Table 3C: pH 5, 50° C., day 3): 0.492 and 0.494 and 0.526 | Percentage of day 0 concentration (Table 3C: pH 5, 50° C., day 6): 96.8% | concentration by HPLC, Average (Table 3C: pH 5, 50° C., day 6): 0.472 | concentration by HPLC, trials #1-#3 (Table 3C: pH 5, 50° C., day 6): 0.459 and 0.475 and 0.481 | Percentage of day 0 concentration (Table 3C: pH 5, 50° C., day 10): 96.9% | concentration by HPLC, Average (Table 3C: pH 5, 50° C., day 10): 0.472 | concentration by HPLC, trials #1-#3 (Table 3C: pH 5, 50° C., day 10): 0.500 and 0.436 and 0.480 | Percentage of day 0 concentration (Table 3C: pH 5, 50° C., day 13): 95.0% | concentration by HPLC, Average (Table 3C: pH 5, 50° C., day 13): 0.463 | concentration by HPLC, trials #1-#3 (Table 3C: pH 5, 50° C., day 13): 0.464 and 0.451 and 0.474 | Percentage of day 0 concentration (Table 3C: pH 5, 50° C., day 17): 93.0% | concentration by HPLC, Average (Table 3C: pH 5, 50° C., day 17): 0.453 | concentration by HPLC, trials #1-#3 (Table 3C: pH 5, 50° C., day 17): 0.407 and 0.491 and 0.462 | Percentage of day 0 concentration (Table 3C: pH 5, 50° C., day 20): 99.9% | concentration by HPLC, Average (Table 3C: pH 5, 50° C., day 20): 0.487 | concentration by HPLC, trials #1-#3 (Table 3C: pH 5, 50° C., day 20): 0.471 and 0.512 and 0.477 | Percentage of day 0 concentration (Table 3C: pH 5, 50° C., day 24): 96.1% | concentration by HPLC, Average (Table 3C: pH 5, 50° C., day 24): 0.468 | concentration by HPLC, trials #1-#3 (Table 3C: pH 5, 50° C., day 24): 0.471 and 0.476 and 0.458 | Percentage of day 0 concentration (Table 3D: pH 7, 50° C., day 0): 100.0% | concentration by HPLC, Average (Table 3D: pH 7, 50° C., day 0): 0.513 | concentration by HPLC, trials #1-#3 (Table 3D: pH 7, 50° C., day 0): 0.483 and 0.530 and 0.525 | Percentage of day 0 concentration (Table 3D: pH 7, 50° C., day 5): 94.1% | concentration by HPLC, Average (Table 3D: pH 7, 50° C., day 5): 0.483 | concentration by HPLC, trials #1-#3 (Table 3D: pH 7, 50° C., day 5): 0.502 and 0.447 and 0.499 | Percentage of day 0 concentration (Table 3D: pH 7, 50° C., day 8): 96.2% | concentration by HPLC, Average (Table 3D: pH 7, 50° C., day 8): 0.493 | concentration by HPLC, trials #1-#3 (Table 3D: pH 7, 50° C., day 8): 0.488 and 0.498 and 0.493 | Percentage of day 0 concentration (Table 3D: pH 7, 50° C., day 12): 91.2% | concentration by HPLC, Average (Table 3D: pH 7, 50° C., day 12): 0.467 | concentration by HPLC, trials #1-#3 (Table 3D: pH 7, 50° C., day 12): 0.490 and 0.469 and 0.443 | Percentage of day 0 concentration (Table 3D: pH 7, 50° C., day 15): 95.9% | concentration by HPLC, Average (Table 3D: pH 7, 50° C., day 15): 0.492 | concentration by HPLC, trials #1-#3 (Table 3D: pH 7, 50° C., day 15): 0.492 and 0.541 and 0.442 | Percentage of day 0 concentration (Table 3D: pH 7, 50° C., day 19): 93.6% | concentration by HPLC, Average (Table 3D: pH 7, 50° C., day 19): 0.480 | concentration by HPLC, trials #1-#3 (Table 3D: pH 7, 50° C., day 19): 0.458 and 0.500 and 0.482 | Percentage of day 0 concentration (Table 3E: pH 9, 50° C., day 0): 100.0% | concentration by HPLC, Average (Table 3E: pH 9, 50° C., day 0): 0.489 | concentration by HPLC, trials #1-#3 (Table 3E: pH 9, 50° C., day 0): 0.508 and 0.476 and 0.484 | Percentage of day 0 concentration (Table 3E: pH 9, 50° C., day 3): 97.8% | concentration by HPLC, Average (Table 3E: pH 9, 50° C., day 3): 0.478 | concentration by HPLC, trials #1-#3 (Table 3E: pH 9, 50° C., day 3): 0.463 and 0.487 and 0.485 | Percentage of day 0 concentration (Table 3E: pH 9, 50° C., day 6): 99.5% | concentration by HPLC, Average (Table 3E: pH 9, 50° C., day 6): 0.487 | concentration by HPLC, trials #1-#3 (Table 3E: pH 9, 50° C., day 6): 0.493 and 0.473 and 0.495 | Percentage of day 0 concentration (Table 3E: pH 9, 50° C., day 10): 91.3% | concentration by HPLC, Average (Table 3E: pH 9, 50° C., day 10): 0.447 | concentration by HPLC, trials #1-#3 (Table 3E: pH 9, 50° C., day 10): 0.441 and 0.428 and 0.471 | Percentage of day 0 concentration (Table 3E: pH 9, 50° C., day 13): 101.3% | concentration by HPLC, Average (Table 3E: pH 9, 50° C., day 13): 0.496 | concentration by HPLC, trials #1-#3 (Table 3E: pH 9, 50° C., day 13): 0.467 and 0.483 and 0.537 | Percentage of day 0 concentration (Table 3E: pH 9, 50° C., day 17): 101.8% | concentration by HPLC, Average (Table 3E: pH 9, 50° C., day 17): 0.498 | concentration by HPLC, trials #1-#3 (Table 3E: pH 9, 50° C., day 17): 0.499 | Percentage of day 0 concentration (Table 3F: pH 10, 50° C., day 0): 100.0% | concentration by HPLC, Average (Table 3F: pH 10, 50° C., day 0): 0.486 | Percentage of day 0 concentration (Table 3F: pH 10, 50° C., day 2): 104.2% | concentration by HPLC, Average (Table 3F: pH 10, 50° C., day 2): 0.506 | Percentage of day 0 concentration (Table 3F: pH 10, 50° C., day 5): 83.5% | concentration by HPLC, Average (Table 3F: pH 10, 50° C., day 5): 0.405 | Percentage of day 0 concentration (Table 3F: pH 10, 50° C., day 7): 81.8% | concentration by HPLC, Average (Table 3F: pH 10, 50° C., day 7): 0.397 | Percentage of day 0 concentration (Table 3F: pH 10, 50° C., day 9): 75.8% | concentration by HPLC, Average (Table 3F: pH 10, 50° C., day 9): 0.368
Compound: CC(C)[C@H](N)C(=O)O [Val, valine]
